Reference: ChEMBL document CHEMBL5465560, “Selectivity Literature for EUbOPEN Chemogenomic Library” (2024)

Columns and labels:
[1] = target: T1, Tyrosine-protein kinase receptor TYRO3 (Homo sapiens) (UniProt Q06418); experiment: Selectivity interaction (KinomeScan (DiscoverX)) EUB0000595a TYRO3; conditions: at 10 µM
T1 sequence (whole entry): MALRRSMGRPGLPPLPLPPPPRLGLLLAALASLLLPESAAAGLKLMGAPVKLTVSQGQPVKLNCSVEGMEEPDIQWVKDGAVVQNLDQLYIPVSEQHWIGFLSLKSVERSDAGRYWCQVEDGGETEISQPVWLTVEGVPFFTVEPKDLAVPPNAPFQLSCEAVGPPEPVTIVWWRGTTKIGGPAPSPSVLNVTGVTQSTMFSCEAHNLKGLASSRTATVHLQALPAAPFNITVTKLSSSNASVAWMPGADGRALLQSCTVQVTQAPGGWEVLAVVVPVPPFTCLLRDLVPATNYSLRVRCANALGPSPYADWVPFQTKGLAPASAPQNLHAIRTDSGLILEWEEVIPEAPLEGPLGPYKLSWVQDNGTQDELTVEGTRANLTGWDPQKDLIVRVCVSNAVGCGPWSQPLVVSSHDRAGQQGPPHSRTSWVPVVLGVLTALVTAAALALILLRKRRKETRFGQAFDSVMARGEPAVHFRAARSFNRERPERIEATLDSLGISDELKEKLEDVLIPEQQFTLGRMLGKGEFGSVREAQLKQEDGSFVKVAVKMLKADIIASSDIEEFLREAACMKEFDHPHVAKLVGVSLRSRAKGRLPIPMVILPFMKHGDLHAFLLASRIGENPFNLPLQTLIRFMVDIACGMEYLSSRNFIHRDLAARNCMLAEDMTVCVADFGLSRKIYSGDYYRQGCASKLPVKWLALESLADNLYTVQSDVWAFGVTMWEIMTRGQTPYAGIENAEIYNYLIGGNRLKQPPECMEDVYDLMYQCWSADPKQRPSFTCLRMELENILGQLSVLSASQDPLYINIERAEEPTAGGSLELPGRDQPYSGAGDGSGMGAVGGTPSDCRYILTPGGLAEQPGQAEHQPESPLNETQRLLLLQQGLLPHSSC

[2] = target: T2, Casein kinase I isoform alpha-like (Homo sapiens) (UniProt Q8N752); conditions: at 10 µM
T2 sequence (whole entry): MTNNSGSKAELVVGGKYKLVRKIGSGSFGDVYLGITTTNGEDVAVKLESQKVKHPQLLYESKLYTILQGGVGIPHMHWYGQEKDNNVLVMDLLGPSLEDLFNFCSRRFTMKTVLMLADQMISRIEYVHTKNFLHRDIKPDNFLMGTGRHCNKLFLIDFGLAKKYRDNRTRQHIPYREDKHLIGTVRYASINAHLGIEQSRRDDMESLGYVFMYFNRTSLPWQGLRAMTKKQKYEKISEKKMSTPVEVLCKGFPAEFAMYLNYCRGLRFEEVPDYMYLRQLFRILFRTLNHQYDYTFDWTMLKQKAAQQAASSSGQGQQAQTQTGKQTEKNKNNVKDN

[3] = target: Histone-lysine N-methyltransferase 2A (Homo sapiens) (UniProt Q03164); conditions: at 10 µM
[4] = target: Tyrosine-protein kinase Yes (Homo sapiens) (UniProt P07947); experiment: Selectivity interaction (KinomeScan (DiscoverX)) EUB0001079a YES1; conditions: at 1 µM
[5] = target: Ribosomal protein S6 kinase alpha-4 (Homo sapiens) (UniProt O75676); experiment: Selectivity interaction (KinomeScan (DiscoverX)) EUB0000666a RPS6KA4; conditions: at 10 µM
[6] = target: N6-adenosine-methyltransferase catalytic subunit (Homo sapiens) (UniProt Q86U44); experiment: Selectivity interaction (Transferase panel (protein, RNA, and DNA methyltransferases. and EP300 (acetyltransferase))) EUB0000270b METTL3
[7] = target: Cyclin-dependent kinase 16 (Homo sapiens) (UniProt Q00536); conditions: at 10 µM
[8] = target: T3, Dual specificity mitogen-activated protein kinase kinase 4 (Homo sapiens) (UniProt P45985); experiment: Selectivity interaction (KinomeScan (DiscoverX)) EUB0001550a MAP2K4; conditions: at 1 µM
T3 sequence (whole entry): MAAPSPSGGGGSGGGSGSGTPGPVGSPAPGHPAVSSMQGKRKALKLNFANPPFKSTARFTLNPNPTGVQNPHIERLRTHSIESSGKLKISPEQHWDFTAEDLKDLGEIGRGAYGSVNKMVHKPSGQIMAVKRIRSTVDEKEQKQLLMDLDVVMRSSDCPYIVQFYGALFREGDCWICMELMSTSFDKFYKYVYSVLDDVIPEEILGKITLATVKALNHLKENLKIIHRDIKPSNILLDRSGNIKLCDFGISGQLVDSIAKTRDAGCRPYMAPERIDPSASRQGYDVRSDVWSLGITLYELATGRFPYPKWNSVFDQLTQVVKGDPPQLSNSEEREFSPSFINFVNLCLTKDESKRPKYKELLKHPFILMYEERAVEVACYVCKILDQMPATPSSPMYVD

[9] = target: T4, Histone-arginine methyltransferase CARM1 (Homo sapiens, UniProt Q86X55); experiment: Selectivity interaction (Western Blot (dimethylation of BAF155 (BAF155me2a/BAF155) in KMS-27 cells)) EUB0000255b CARM1; assay type: cell-based
T4 sequence (Q86X55 whole entry): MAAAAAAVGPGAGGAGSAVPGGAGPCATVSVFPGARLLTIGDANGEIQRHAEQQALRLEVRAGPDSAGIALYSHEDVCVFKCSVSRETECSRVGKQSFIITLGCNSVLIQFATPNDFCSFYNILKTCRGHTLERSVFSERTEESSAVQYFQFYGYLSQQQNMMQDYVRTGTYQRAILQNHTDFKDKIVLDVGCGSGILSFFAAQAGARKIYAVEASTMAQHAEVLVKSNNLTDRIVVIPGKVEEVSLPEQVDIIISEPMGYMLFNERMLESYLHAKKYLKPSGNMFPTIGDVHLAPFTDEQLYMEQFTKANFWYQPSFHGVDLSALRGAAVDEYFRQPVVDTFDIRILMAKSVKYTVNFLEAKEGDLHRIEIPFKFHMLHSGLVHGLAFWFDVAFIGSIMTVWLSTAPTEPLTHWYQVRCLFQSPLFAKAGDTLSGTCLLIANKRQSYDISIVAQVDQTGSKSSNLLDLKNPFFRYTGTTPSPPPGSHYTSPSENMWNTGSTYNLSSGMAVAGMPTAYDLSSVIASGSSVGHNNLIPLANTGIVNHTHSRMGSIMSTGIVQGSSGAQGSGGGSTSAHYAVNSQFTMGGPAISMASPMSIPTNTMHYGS

[10] = target: TGF-beta receptor type-2 (Homo sapiens) (UniProt P37173); experiment: Selectivity interaction (KinomeScan (DiscoverX)) EUB0000607a TGFBR2; conditions: at 10 µM
[11] = target: Serine/threonine-protein kinase pim-1 (Homo sapiens, UniProt P11309); experiment: Selectivity interaction (Kinase panel (Invitrogen)) EUB0000639a PIM1; conditions: at 200 nM
[12] = target: MAP kinase-interacting serine/threonine-protein kinase 1 (Homo sapiens) (UniProt Q9BUB5); experiment: Selectivity interaction (KinomeScan (DiscoverX)) EUB0000092b MKNK1; conditions: at 10 µM

N6-adenosine-methyltransferase catalytic subunit (Homo sapiens), sequence (Q86U44 whole entry): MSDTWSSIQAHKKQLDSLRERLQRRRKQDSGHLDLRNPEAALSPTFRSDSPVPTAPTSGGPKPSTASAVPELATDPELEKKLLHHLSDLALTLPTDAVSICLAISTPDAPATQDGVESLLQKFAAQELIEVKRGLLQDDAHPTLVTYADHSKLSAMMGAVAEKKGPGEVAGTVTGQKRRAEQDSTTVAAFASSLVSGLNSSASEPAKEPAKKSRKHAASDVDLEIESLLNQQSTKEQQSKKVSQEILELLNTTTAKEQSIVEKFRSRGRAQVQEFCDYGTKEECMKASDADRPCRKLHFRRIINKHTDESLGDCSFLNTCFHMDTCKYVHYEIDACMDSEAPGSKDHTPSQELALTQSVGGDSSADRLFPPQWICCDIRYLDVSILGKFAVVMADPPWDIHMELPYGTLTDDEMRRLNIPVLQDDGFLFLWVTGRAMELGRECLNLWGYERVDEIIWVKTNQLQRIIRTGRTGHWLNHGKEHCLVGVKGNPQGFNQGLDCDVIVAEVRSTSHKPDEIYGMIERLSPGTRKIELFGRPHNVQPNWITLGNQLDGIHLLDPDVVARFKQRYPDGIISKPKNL
Histone-lysine N-methyltransferase 2A (Homo sapiens), sequence (Q03164 1-2718 limits assumed): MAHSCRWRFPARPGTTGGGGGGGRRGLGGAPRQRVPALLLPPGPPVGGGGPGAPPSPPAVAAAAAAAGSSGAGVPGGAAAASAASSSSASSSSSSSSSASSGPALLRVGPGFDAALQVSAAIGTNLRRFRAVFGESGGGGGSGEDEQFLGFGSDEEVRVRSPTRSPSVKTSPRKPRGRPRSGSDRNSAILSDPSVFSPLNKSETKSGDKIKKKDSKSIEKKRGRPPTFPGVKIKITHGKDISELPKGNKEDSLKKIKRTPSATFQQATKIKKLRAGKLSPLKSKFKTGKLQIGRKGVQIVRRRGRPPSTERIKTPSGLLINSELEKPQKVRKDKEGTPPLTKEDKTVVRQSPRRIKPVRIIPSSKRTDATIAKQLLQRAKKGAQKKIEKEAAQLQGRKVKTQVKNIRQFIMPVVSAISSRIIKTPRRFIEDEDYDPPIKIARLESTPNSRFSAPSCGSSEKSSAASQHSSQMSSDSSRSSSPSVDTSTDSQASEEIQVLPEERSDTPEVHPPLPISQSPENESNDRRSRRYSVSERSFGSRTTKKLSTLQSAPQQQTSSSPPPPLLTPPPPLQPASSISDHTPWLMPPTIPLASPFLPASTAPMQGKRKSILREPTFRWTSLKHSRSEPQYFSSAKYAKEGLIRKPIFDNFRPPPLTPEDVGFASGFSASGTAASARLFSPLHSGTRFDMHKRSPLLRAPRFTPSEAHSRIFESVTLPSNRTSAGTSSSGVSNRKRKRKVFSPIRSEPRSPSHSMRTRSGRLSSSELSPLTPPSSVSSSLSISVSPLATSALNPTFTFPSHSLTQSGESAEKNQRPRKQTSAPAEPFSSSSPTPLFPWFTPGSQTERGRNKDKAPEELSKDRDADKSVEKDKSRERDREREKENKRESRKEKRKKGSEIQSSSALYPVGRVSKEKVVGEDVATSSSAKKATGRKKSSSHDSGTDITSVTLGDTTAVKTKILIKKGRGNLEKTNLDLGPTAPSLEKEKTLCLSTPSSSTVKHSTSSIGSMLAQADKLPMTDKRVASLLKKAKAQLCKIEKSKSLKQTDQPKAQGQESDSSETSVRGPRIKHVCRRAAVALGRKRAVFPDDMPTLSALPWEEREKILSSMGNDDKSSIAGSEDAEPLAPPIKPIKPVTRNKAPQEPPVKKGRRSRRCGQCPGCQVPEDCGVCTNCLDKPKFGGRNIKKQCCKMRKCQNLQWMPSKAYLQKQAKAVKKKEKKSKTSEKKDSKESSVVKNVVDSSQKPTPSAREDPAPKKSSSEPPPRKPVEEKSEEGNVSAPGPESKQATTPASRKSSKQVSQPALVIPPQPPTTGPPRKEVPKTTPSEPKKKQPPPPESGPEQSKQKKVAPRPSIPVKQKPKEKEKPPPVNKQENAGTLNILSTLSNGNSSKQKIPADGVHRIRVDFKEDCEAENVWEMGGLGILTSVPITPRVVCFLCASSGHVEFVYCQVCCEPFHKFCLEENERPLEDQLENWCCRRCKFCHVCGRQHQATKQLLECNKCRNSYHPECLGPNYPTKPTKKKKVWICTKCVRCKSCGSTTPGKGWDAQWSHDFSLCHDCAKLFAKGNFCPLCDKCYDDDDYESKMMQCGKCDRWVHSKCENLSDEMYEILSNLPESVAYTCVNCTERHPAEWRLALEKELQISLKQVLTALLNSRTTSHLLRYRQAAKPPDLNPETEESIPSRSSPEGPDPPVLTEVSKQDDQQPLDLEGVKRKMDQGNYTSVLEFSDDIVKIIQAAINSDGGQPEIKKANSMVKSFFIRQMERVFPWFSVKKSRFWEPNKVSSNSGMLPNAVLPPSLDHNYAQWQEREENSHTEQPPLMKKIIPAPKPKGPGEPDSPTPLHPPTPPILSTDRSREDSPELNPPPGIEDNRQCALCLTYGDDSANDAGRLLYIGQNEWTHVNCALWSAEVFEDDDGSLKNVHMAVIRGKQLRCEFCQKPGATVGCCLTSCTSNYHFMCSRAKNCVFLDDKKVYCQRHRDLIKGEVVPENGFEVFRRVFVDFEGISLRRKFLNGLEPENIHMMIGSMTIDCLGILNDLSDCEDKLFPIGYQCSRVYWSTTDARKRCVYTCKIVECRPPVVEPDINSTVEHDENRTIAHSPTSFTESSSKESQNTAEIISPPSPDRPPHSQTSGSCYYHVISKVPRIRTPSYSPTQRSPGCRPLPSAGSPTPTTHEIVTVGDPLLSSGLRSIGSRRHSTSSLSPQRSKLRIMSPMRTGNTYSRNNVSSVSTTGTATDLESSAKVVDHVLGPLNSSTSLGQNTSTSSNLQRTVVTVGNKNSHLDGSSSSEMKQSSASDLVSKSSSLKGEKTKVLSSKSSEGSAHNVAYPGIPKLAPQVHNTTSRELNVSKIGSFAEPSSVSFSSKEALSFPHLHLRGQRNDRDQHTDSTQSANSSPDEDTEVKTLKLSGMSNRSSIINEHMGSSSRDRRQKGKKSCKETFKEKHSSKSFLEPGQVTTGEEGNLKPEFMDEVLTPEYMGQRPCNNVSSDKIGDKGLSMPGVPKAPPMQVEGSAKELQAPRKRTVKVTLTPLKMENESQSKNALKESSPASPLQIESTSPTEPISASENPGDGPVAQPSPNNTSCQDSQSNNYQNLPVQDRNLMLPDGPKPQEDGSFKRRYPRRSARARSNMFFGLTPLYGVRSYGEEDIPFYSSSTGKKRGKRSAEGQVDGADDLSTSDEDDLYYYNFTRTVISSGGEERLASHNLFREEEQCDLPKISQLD
Histone-lysine N-methyltransferase 2A (Homo sapiens), sequence (Q03164 2719-3969 limits assumed): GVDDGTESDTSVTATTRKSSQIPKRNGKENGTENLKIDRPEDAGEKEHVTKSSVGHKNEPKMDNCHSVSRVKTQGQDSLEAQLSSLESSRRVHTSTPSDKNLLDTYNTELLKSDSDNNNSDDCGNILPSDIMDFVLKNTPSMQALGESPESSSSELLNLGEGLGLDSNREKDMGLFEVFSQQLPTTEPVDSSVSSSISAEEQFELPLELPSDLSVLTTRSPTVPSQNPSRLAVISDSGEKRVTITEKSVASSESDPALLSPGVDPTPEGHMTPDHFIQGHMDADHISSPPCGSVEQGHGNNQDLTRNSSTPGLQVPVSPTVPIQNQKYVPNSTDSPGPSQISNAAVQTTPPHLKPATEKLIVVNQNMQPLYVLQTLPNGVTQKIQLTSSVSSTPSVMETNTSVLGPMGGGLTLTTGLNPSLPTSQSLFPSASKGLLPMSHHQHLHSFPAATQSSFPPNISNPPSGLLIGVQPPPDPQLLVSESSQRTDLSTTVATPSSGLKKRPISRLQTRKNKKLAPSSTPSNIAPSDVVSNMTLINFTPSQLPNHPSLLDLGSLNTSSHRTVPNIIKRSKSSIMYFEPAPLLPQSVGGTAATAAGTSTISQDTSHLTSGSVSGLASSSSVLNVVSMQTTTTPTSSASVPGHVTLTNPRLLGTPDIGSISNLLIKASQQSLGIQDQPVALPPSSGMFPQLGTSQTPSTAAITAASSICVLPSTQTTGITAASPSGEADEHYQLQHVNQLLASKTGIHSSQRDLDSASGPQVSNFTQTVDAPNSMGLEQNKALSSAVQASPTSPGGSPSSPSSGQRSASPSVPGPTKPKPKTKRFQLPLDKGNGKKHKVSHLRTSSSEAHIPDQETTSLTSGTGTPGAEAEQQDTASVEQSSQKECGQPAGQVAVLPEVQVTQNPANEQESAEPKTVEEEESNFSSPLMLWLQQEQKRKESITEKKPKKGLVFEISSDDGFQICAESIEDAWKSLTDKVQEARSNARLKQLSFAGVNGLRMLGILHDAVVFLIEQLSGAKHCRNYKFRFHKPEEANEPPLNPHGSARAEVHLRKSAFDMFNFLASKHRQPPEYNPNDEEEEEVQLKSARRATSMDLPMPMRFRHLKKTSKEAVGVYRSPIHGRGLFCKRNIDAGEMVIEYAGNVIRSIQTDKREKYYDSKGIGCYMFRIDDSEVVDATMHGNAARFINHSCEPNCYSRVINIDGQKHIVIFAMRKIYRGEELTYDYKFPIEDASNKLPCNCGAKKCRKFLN
Cyclin-dependent kinase 16 (Homo sapiens), sequence (Q00536 whole entry): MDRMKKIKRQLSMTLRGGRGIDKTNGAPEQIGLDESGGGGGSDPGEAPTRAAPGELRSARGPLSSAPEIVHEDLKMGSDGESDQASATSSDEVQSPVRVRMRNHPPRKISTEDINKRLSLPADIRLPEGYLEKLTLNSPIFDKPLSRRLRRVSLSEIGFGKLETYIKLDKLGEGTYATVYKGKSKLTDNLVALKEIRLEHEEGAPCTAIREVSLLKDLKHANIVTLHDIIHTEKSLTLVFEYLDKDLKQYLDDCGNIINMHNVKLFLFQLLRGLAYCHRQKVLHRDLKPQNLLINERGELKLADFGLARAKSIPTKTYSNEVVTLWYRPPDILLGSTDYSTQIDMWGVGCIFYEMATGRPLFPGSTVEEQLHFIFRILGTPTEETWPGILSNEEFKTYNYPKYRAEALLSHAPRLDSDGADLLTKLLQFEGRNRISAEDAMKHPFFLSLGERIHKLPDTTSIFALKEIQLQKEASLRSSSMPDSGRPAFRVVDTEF

Q: What does the source list for `COCC(=O)NC/C=C/c1ccc2ncnc(Nc3ccc(Oc4ccc(C)nc4)c(C)c3)c2c1` [CP-724714]?
A: % of control [1]: 80%; % of control [2]: 82%

Q: Which % activity [3] does the source give for `CNCCN1CCC(c2cc(CN(C)C(=O)c3cccc(Oc4ccccc4)c3)ccn2)CC1` here?
A: > 90%

Q: Which % of control [4] does the source give for `Nc1cnc(N2CCc3cc(S(=O)(=O)Nc4c(F)cc(Cl)cc4F)cc(N4CCCC4=O)c32)nc1` [TP-020n] here?
A: 100%

Q: With `O=C(NOC[C@H](O)CO)c1ccc(F)c(F)c1Nc1ccc(I)cc1F` as the compound, how does the % of control [5] read?
A: 86%

Q: `Cc1cc(CN)cc(C)c1-c1ncn(C)c1-c1cncn1C` was tested. Which % activity ([6]; at 1 µM) did it give?
A: > 90%

Q: And the % activity ([6]; at 10 µM)?
A: > 80%

Q: `Cc1cc([C@@H](C)Nc2ccccc2C(=O)O)c2nc(N3CCOCC3)cc(=O)n2c1` [AZD-6482] was tested. Which % of control [7] did it give?
A: 100%

Q: `CN(C)CC#Cc1ccc2[nH]c3c(c2c1)-c1nc(N)ncc1CCC3` was tested. Which % of control [8] did it give?
A: 12%

Q: `COCCN1CCC(c2cc(CN(C)C(=O)c3cccc(Oc4ccccc4)c3)ccn2)CC1` was tested. Which IC50 [9] did it give?
A: > 3 nM

Q: For `CNC(=O)Nc1ccc(-c2nc(N3CC4CCC(C3)O4)c3cnn(C4CCC5(CC4)OCCO5)c3n2)cc1`, which % of control [10] is on record?
A: 100%

Q: How did the % of inhibition [11] turn out when `CC[C@@H]1[C@H](F)C(=O)N[C@@H]1COc1nccc2cc(C(N)=O)c(OC)cc12` [ZIMLOVISERTIB] was run?
A: 12.3%

Q: With `CCC(=O)N1CCN(c2ccc(-n3c(=O)ccc4cnc5ccc(-c6cnc7ccccc7c6)cc5c43)cc2C(F)(F)F)CC1` as the compound, how does the % of control [12] read?
A: 44%
